# Assay results reported in US10227357B2, “Compounds and methods for kinase modulation, and indications therefor” (Plexxikon Inc., priority 2012, dated 2019).
# How the values were obtained:
# D816V KIT mutation = D816V KIT mutation (Homo sapiens, UniProt P10721, D816V); conditions: Frost et al., 2002; cited from earlier work
# [1] = system: cells with activating c-kit mutations in the catalytic region; conditions: Ma et al., 2002; cited from earlier work
# c-kit kinase = target: T1, c-kit kinase (Homo sapiens, UniProt P10721); experiment: c-Kit biochemical assay, AlphaScreen, 10 μM ATP; conditions: c-kit biochemical inhibitory activity; read-out: Biochemical activity (IC50 μM) Kit
# T1 construct: The c-kit (or kinase domain thereof) is an active kinase in AlphaScreen; poly-Histidine tag (in-house protein only) (cleaved yes); host or cells: E. coli BL21(DE3)RIL, co-expressed with PTP1B
# In short: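 His-tagged c-Kit expressed in E. coli with co-expressed PTP1B (dephosphorylated), tag removed; 0.1 ng per reaction with biotinylated-peptide substrate in 50 mM HEPES pH 7.2, 5 mM MgCl2, 5 mM MnCl2, 5% DMSO, 10 μM ATP, 1 h at room temperature. Phosphorylation detected by AlphaScreen (streptavidin donor, PY20 acceptor beads); IC50 from 8-point 1:3 dilution series.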
# c-kit mutant D816V = target: T2, c-kit mutant D816V (Homo sapiens, UniProt P10721, D816V/DEL694-753); experiment: c-Kit mutant D816V biochemical assay, AlphaScreen; conditions: c-kit D816V biochemical inhibitory activity; read-out: Biochemical activity (IC50 μM) Kit D816V
# T2 construct: residues 551-934, kinase insertion domain residues 694-753 deleted; 6x-histidine (N); made in house; host or cells: E. coli Arctic Express (DE3) RIL (Stratagene)
# In short: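 Purified His-tagged c-Kit D816V (E. coli-expressed) assayed in 25 mM HEPES pH 7.2 with Mg/Mn, 5% DMSO and 10 μM ATP, 30 min at room temperature, 8-point 1:3 dilutions. Phosphorylation detected by AlphaScreen with streptavidin donor and PY20 acceptor beads; IC50 from signal versus concentration.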
# T1 sequence (P10721 26-976): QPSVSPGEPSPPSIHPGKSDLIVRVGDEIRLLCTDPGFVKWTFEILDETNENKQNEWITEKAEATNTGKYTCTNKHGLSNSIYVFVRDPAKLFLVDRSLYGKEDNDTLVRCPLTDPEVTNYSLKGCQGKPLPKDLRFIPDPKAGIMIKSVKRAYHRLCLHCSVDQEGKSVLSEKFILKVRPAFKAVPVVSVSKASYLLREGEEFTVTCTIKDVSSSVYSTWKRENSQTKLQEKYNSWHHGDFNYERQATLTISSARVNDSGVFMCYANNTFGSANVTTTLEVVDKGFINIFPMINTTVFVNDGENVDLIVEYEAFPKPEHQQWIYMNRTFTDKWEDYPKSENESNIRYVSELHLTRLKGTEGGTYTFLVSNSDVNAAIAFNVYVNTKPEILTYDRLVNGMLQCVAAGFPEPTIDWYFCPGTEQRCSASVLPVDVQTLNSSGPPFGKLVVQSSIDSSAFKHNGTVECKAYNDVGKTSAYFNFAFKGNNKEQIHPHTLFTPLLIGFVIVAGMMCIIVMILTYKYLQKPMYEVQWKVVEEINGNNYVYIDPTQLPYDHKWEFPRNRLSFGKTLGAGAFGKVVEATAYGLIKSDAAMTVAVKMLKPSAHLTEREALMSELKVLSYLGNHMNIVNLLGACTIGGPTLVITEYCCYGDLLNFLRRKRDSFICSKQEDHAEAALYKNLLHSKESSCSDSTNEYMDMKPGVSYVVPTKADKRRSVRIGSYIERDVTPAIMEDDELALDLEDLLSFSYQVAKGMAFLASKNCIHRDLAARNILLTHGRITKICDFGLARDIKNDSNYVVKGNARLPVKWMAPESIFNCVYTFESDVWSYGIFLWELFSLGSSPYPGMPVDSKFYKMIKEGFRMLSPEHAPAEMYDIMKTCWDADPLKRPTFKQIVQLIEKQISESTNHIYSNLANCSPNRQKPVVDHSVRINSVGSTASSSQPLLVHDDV
# T2 sequence (P10721 with tags, fused parts or gaps DEL694-753/D816V): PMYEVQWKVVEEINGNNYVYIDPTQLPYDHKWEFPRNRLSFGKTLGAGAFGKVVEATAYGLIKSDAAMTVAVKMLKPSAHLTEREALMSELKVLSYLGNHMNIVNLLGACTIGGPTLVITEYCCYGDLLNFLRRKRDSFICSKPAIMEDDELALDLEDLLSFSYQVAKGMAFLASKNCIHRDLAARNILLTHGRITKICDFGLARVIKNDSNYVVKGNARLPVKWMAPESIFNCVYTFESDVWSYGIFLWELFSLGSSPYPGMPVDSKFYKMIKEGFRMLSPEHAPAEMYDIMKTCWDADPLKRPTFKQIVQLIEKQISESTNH
# Chain of D816V KIT mutation (P10721 26-976 D816V): as the sequence (P10721 26-976) above, with D791V counted along it
Compound,sensitivity of D816V KIT mutation (D816V KIT mutation),inhibition of cells with c-kit mutations in the catalytic region [1],IC50 (c-kit kinase) [µM],IC50 (c-kit mutant D816V) [µM]
Cc1ccc(NC(=O)c2ccc(CN3CCN(C)CC3)cc2)cc1Nc1nccc(-c2cccnc2)n1 [imatinib],resistant,,,
Cc1ccc(NC(=O)c2ccc(CN3CCN(C)CC3)cc2)cc1Nc1nccc(-c2cccnc2)n1 [STI571],,did not inhibit,,
"C[C@H](NC(=O)N1CCN(c2ncnc3[nH]c(-c4ccc(F)cc4)cc23)CC1)c1cccc2ccccc12 [P-0155, 4-[6-(4-fluorophenyl)-7H-pyrrolo[2,3-d]pyrimidin-4-yl]-N-[(1S)-1-(1-naphthyl)ethyl]piperazine-1-carboxamide]",,,1 to 10,0.0001 to 1
"COc1cc(-c2cc3c(N4CCN(C(=O)NCc5ccc(F)cc5)CC4)ncnc3[nH]2)ccn1 [P-0104, N-[(4-fluorophenyl)methyl]-4-[6-(2-methoxy-4-pyridyl)-7H-pyrrolo[2,3-d]pyrimidin-4-yl]piperazine-1-carboxamide]",,,10 to 200,1 to 10
"O=C(NCc1cccs1)N1CCN(c2ncnc3cc(-c4ccc(F)cc4)sc23)CC1 [P-0709, 4-[6-(4-fluorophenyl)thieno[3,2-d]pyrimidin-4-yl]-N-(2-thienylmethyl)piperazine-1-carboxamide]",,,10 to 200,0.0001 to 1
"CS(=O)(=O)Nc1ccc(-c2cc3c(-c4ccc(NS(C)(=O)=O)cc4F)ncnc3[nH]2)c(F)c1 [P-0382, N-[3-fluoro-4-[4-[2-fluoro-4-(methanesulfonamido)phenyl]-7H-pyrrolo[2,3-d]pyrimidin-6-yl]phenyl]methanesulfonamide]",,,0.0001 to 1,0.0001 to 1
"c1nc(N2CCNCC2)c2cc[nH]c2n1 [P-0233, 4-piperazin-1-yl-7H-pyrrolo[2,3-d]pyrimidine]",,,10 to 200,10 to 200
"NC(=O)c1cccc(-c2cc3c(N4CCN(C(=O)Nc5ccc(OC(F)(F)F)cc5)CC4)ncnc3[nH]2)c1 [P-0078, 4-[6-(3-carbamoylphenyl)-7H-pyrrolo[2,3-d]pyrimidin-4-yl]-N-[4-(trifluoromethoxy)phenyl]piperazine-1-carboxamide]",,,0.0001 to 1,10 to 200
